Reference: PMC4393269, “Carvacrol Codrugs: A New Approach in the Antimicrobial Plan” (PLoS ONE, 2015)
In brackets after ≈: the same amount, converted by molar mass. Each block holds one molecule with its values, some of them ahead of it.

Columns and labels:
[1] = tested on: C. albicans ATCC 10231; experiment: Broth microdilution MIC/MFC; format: cell-based; conditions: Candida albicans, ATCC10231; for MIC: C. albicans ATCC 10231, 24–48 h at 37°C, read-out: MIC; for MFC: C. albicans ATCC 10231, read-out: MFC
Experimental: (§1) Two Gram-positive (S. aureus ATCC 29213 and S. epidermidis ATCC 35984) and two Gram-negative (E. coli ATCC 8739 and P. aeruginosa ATCC 9027) strains, and one fungal strain (C. albicans ATCC 10231) were used for the detection of antibacterial activity of carvacrol, NAC, Ac-Cys(Allyl)-OH, and carvacrol codrugs 1–10. All tested compounds were dissolved in 20% DMSO to prepare the stock solution (100 mg/mL). The final concentration of DMSO in each well appeared to be not toxic for all studied microorganisms, as confirmed by the solvent control test included in the study.
The MIC detection of C. albicans ATCC 10231 was performed using the broth microdilution method according to EUCAST guidelines in RPMI 1640 plus 2% glucose with a final inoculum of 1–5 x 10^5 CFU/mL for 24–48 h at 37°C. The Minimum Fungicidal Concentration (MFC) was determined as the lowest concentration of substances at which no fungal growth occurred on Sabouraud agar plates.
(§2) Data were obtained from at least three independent experiments performed in duplicate. The susceptibility of the bacterial strains against ciprofloxacin was used as an internal standard during MIC determinations.

[2] = tested on: human red blood cells (h-RBC); experiment: Hemolytic activity; format: cell-based; conditions: 4% h-RBC, 1 h at 37°C; for hemolytic activity, maximum at the tested concentrations: 25 to 0.05 mg/mL
Experimental: (§3) Experimental protocols to study hemolysis on human red cells were approved by Ethics Committee of the University “G. d’Annunzio” Chieti-Pescara. Human red cells were from two volunteers, who signed the informed consent for this study.
(§4) Hemolytic activity of carvacrol codrugs 1–10 was tested against human red blood cells (h-RBC). Fresh human blood, collected with EDTA, was centrifuged at 3000 rpm for 5 min then washed three times with PBS pH 7.3. Red blood cells were diluted to 4% in PBS and incubated with different codrugs concentrations ranging from 25 to 0.05 mg/mL. After 1 h of incubation at 37°C, the suspensions were sedimented by centrifugation and the release of hemoglobin was determined by absorbance measurement at 405 nm and compared with a 0% hemolysis control (PBS) and a 100% hemolysis control (PBS with 1% v/v Triton X-100). The percentage of hemolysis was calculated using the following equation: Hemolysis (%) = [(OD405sample - OD4050% lysis control)/(OD405100% lysis control - OD4050% lysis contro)] X 100

[3] = tested on: P. aeruginosa ATCC 9027; experiment: Broth microdilution MIC/MBC on planktonic cells; format: cell-based; conditions: Pseudomonas aeruginosa, ATCC9027; for MIC: P. aeruginosa ATCC 9027, 24 h at 37°C, read-out: MIC; for MBC: P. aeruginosa ATCC 9027, read-out: MBC
Experimental: as §1
(§5) The effects of carvacrol codrugs 1–10 and reference compounds on planktonic cells were evaluated by Minimum Inhibitory Concentration (MIC) and Minimum Bactericidal Concentration (MBC) determination using the broth microdilution method according to EUCAST guidelines. Bacterial suspensions, grown in Mueller–Hinton Broth (MHB) at logarithmic phase, were incubated on microtiter plates at a concentration of 5 x 10^5 CFU/mL, with several dilutions (0.07–40 mg/mL) for 24 h at 37°C. The MIC was defined as the lowest concentration of substances giving a complete inhibition of visible growth in comparison with a control well, and the MBC was determined as the lowest concentration at which no bacterial growth occurred on Mueller–Hinton Agar plates.
as §2

[4] = tested on: E. coli ATCC 8739; experiment: Broth microdilution MIC/MBC on planktonic cells; format: cell-based; conditions: Escherichia coli, ATCC8739; for MIC: E. coli ATCC 8739, 24 h at 37°C, read-out: MIC; for MBC: E. coli ATCC 8739, read-out: MBC
Experimental: as §1, §5, §2

[5] = tested on: S. epidermidis ATCC 35984; experiment: Broth microdilution MIC/MBC on planktonic cells; format: cell-based; conditions: Staphylococcus epidermidis, ATCC35984; for MIC: S. epidermidis ATCC 35984, 24 h at 37°C, read-out: MIC; for MBC: S. epidermidis ATCC 35984, read-out: MBC
Experimental: as §1, §5, §2

[6] = tested on: S. aureus ATCC 29213; experiment: Broth microdilution MIC/MBC on planktonic cells; format: cell-based; conditions: Staphylococcus aureus, ATCC29213; for MIC: S. aureus ATCC 29213, 24 h at 37°C, read-out: MIC; for MBC: S. aureus ATCC 29213, read-out: MBC
Experimental: as §1, §5, §2

[7] = Hemolytic activity; format: cell-based, human; conditions: human, human red blood cells (h-RBC), 4% suspension, pH 7.3; 4% h-RBC in PBS, 1 h at 37°C, at the compound's MIC values
Experimental: as §3, §4

SMILES: CC(=O)N[C@@H](CS)C(=O)Oc1cc(C(C)C)ccc1C [codrug 1, NAC-CAR]
- MIC [1]: 300 µg/mL (≈ 1.02 mM)
- MFC [1]: 300 µg/mL (≈ 1.02 mM)
- hemolytic activity, maximum at the tested concentrations [2]: ≤ 40%
- MIC [3]: 10000 µg/mL (≈ 33.9 mM)
- MBC [3]: 10000 µg/mL (≈ 33.9 mM)
- MIC [4]: 10000 µg/mL (≈ 33.9 mM)
- MBC [4]: 10000 µg/mL (≈ 33.9 mM)
- MIC [5]: 5000 µg/mL (≈ 16.9 mM)
- MBC [5]: 20000 µg/mL (≈ 67.7 mM)
- MIC [6]: 10000 µg/mL (≈ 33.9 mM)
- MBC [6]: 10000 µg/mL (≈ 33.9 mM)

SMILES: C#CCSC[C@H](NC(C)=O)C(=O)Oc1cc(C(C)C)ccc1C [codrug 9, N-Ac-Cys(Propargyl)-CAR]
- MIC [1]: 1250 µg/mL (≈ 3.75 mM)
- MFC [1]: 2500 µg/mL (≈ 7.5 mM)
- hemolysis at 1 h [7]: > 50%
- concentration at which hemolytic activity is over 50% [2]: 10000 µg/mL
- MIC [3]: 10000 µg/mL (≈ 30 mM)
- MBC [3]: 10000 µg/mL (≈ 30 mM)
- MIC [4]: 10000 µg/mL (≈ 30 mM)
- MBC [4]: 10000 µg/mL (≈ 30 mM)
- MIC [5]: 5000 µg/mL (≈ 15 mM)
- MBC [5]: 10000 µg/mL (≈ 30 mM)
- MIC [6]: 10000 µg/mL (≈ 30 mM)
- MBC [6]: 10000 µg/mL (≈ 30 mM)

SMILES: C[Se]CC[C@H](NC(C)=O)C(=O)Oc1cc(C(C)C)ccc1C [codrug 6, N-Ac-Met(Se)-CAR]
- MIC [1]: 150 µg/mL (≈ 0.405 mM)
- MFC [1]: 600 µg/mL (≈ 1.62 mM)
- concentration at which hemolytic activity is over 50% [2]: over 20 mg/mL
- MIC [3]: 5000 µg/mL (≈ 13.5 mM)
- MBC [3]: 10000 µg/mL (≈ 27 mM)
- MIC [4]: 5000 µg/mL (≈ 13.5 mM)
- MBC [4]: 10000 µg/mL (≈ 27 mM)
- MIC [5]: 5000 µg/mL (≈ 13.5 mM)
- MBC [5]: 10000 µg/mL (≈ 27 mM)
- MIC [6]: 10000 µg/mL (≈ 27 mM)
- MBC [6]: 10000 µg/mL (≈ 27 mM)

SMILES: CCSC[C@H](NC(C)=O)C(=O)Oc1cc(C(C)C)ccc1C [codrug 3, N-Ac-Cys(Ethyl)-CAR]
- MIC [1]: 2500 µg/mL (≈ 7.73 mM)
- MFC [1]: 2500 µg/mL (≈ 7.73 mM)
- concentration at which hemolytic activity is over 50% [2]: over 20 mg/mL
- MIC [3]: 10000 µg/mL (≈ 30.9 mM)
- MBC [3]: 10000 µg/mL (≈ 30.9 mM)
- MIC [4]: 10000 µg/mL (≈ 30.9 mM)
- MBC [4]: 10000 µg/mL (≈ 30.9 mM)
- MIC [5]: 10000 µg/mL (≈ 30.9 mM)
- MBC [5]: 10000 µg/mL (≈ 30.9 mM)
- MIC [6]: 10000 µg/mL (≈ 30.9 mM)
- MBC [6]: 10000 µg/mL (≈ 30.9 mM)

Continued by falling MIC [1], values first:

- MIC [1]: 5000 µg/mL (≈ 16.2 mM)
- MIC [3]: 10000 µg/mL (≈ 32.3 mM)
- MIC [4]: 10000 µg/mL (≈ 32.3 mM)
- MIC [5]: 2500 µg/mL (≈ 8.08 mM)
- MIC [6]: 10000 µg/mL (≈ 32.3 mM)
SMILES: CSC[C@H](NC(C)=O)C(=O)Oc1cc(C(C)C)ccc1C [codrug 2, N-Ac-Cys(Methyl)-CAR]
- MFC [1]: 5000 µg/mL (≈ 16.2 mM)
- concentration at which hemolytic activity is over 50% [2]: over 20 mg/mL
- MBC [3]: 10000 µg/mL (≈ 32.3 mM)
- MBC [4]: 10000 µg/mL (≈ 32.3 mM)
- MBC [5]: 10000 µg/mL (≈ 32.3 mM)
- MBC [6]: 10000 µg/mL (≈ 32.3 mM)

- MIC [1]: 2500 µg/mL (≈ 8.95 mM)
- MIC [3]: 10000 µg/mL (≈ 35.8 mM)
- MIC [4]: 10000 µg/mL (≈ 35.8 mM)
- MIC [5]: 10000 µg/mL (≈ 35.8 mM)
- MIC [6]: 10000 µg/mL (≈ 35.8 mM)
SMILES: Cc1ccc(C(C)C)cc1OC(=O)[C@@H]1CSC(=O)N1 [codrug 10, OTC-CAR]
- MFC [1]: 2500 µg/mL (≈ 8.95 mM)
- hemolytic activity, maximum at the tested concentrations [2]: ≤ 12%
- MBC [3]: 10000 µg/mL (≈ 35.8 mM)
- MBC [4]: 10000 µg/mL (≈ 35.8 mM)
- MBC [5]: 10000 µg/mL (≈ 35.8 mM)
- MBC [6]: 10000 µg/mL (≈ 35.8 mM)
